Source: patent publication US20160159816A1, “SUBSTITUTED THIENOPYRIMIDINES AND PHARMACEUTICAL USE THEREOF” (BAYER PHARMA AKTIENGESELLSCHAFT, priority 2013, published 2016)

Each molecule was assayed against T1, human full-length MKNK1 (Homo sapiens, UniProt Q9BUB5, T385D) (assay: MKNK1 kinase high ATP assay (TR-FRET)). Settings: high ATP (2 mM), after preincubation with MKNK1; compounds of the present invention (Table 1a).
T1 construct: GST (N); purchased Carna Biosciences 02-145; host or cells: insect cells, baculovirus expression system
T1 sequence (Q9BUB5 1-424 isoform Q9BUB5-2 T344D): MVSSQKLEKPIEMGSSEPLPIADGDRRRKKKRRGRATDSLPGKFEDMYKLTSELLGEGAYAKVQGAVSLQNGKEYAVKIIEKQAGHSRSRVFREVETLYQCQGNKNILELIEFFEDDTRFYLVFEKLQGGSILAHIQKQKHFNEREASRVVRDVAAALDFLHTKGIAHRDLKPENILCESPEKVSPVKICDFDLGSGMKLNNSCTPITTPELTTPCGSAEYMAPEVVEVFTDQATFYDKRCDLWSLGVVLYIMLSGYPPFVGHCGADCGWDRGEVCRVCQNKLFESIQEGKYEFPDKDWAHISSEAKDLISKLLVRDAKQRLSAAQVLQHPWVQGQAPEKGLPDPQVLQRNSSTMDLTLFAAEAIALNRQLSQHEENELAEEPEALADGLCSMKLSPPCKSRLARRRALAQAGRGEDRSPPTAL
Assay type: biochemical
Procedure: MKNK1-inhibitory activity at high ATP of compounds of the present invention after their preincubation with MKNK1 was quantified employing the TR-FRET-based MKNK1 high ATP assay as described in the following paragraphs.
A recombinant fusion protein of Glutathione-S-Transferase (GST, N-terminally) and human full-length MKNK1 (amino acids 1-424 and T344D of accession number BAA 19885.1), expressed in insect cells using baculovirus expression system and purified via glutathione sepharose affinity chromatography, was purchased from Carna Biosciences (product no 02-145) and used as enzyme. As substrate for the kinase reaction the biotinylated peptide biotin-Ahx-IKKRKLTRRKSLKG (C-terminus in amide form) was used, which can be purchased e.g. from the company Biosyntan (Berlin-Buch, Germany).
For the assay 50 nL of a 100 fold concentrated solution of the test compound in DMSO was pipetted into a black low volume 384 well microtiter plate (Greiner Bio-One, Frickenhausen, Germany), 2 μL of a solution of MKNK1 in aqueous assay buffer [50 mM HEPES pH 7.5, 5 mM MgCl2, 1.0 mM dithiothreitol, 0.005% (v/v) Nonidet-P40 (Sigma)] was added and the mixture was incubated for 15 min at 22° C. to allow pre-binding of the test compounds to the enzyme before the start of the kinase reaction. Then the kinase reaction was started by the addition of 3 μL of a solution of adenosine-tri-phosphate (ATP, 3.3 mM=>final conc. in the 5 μL assay volume is 2 mM) and substrate (0.1 μM=>final conc. in the 5 μL assay volume is 0.06 μM) in assay buffer and the resulting mixture was incubated for a reaction time of 30 min at 22° C. The concentration of MKNK1 was adjusted depending of the activity of the enzyme lot and was chosen appropriate to have the assay in the linear range, typical concentrations were in the range of 0.003 μg/mL. The reaction was stopped by the addition of 5 μL of a solution of TR-FRET detection reagents (5 nM streptavidine-XL665 [Cisbio Bioassays, Codolet, France] and 1 nM anti-ribosomal protein […] (pSer236)-antibody from Invitrogen [#44921G] and 1 nM LANCE EU-W1024 labeled ProteinG [Perkin-Elmer, product no. AD0071]) in an aqueous EDTA-solution (100 mM EDTA, 0.1% (w/v) bovine serum albumin in 50 mM HEPES pH 7.5).
The resulting mixture was incubated for 1 h at 22° C. to allow the formation of complex between the phosphorylated biotinylated peptide and the detection reagents. Subsequently the amount of phosphorylated substrate was evaluated by measurement of the resonance energy transfer from the Eu-chelate to the streptavidine-XL. Therefore, the fluorescence emissions at 620 nm and 665 nm after excitation at 350 nm were measured in a TR-FRET reader, e.g. a Rubystar (BMG Labtechnologies, Offenburg, Germany) or a Viewlux (Perkin-Elmer). The ratio of the emissions at 665 nm and at […] was taken as the measure for the amount of phosphorylated substrate. The data were normalised (enzyme reaction without inhibitor=0% inhibition, all other assay components but no enzyme=100% inhibition). […] Table 1a lists MKNK1 high ATP IC50 values of some compounds of the present invention.

| Compound | IC50 |
| --- | --- |
| COCC1(OC)CCc2c(sc3ncnc(Nc4cc5cn[nH]c5cc4F)c23)C1 (racemic) [Example 30, (RS)—N-(6-Fluoro-1H-indazol-5-yl)-7-methoxy-7-(methoxymethyl)-5,6,7,8-tetrahydro[1]benzothieno[2,3-d]pyrimidin-4-amine] | 89.4 nM |
| CC1CCc2c(sc3ncnc(Nc4cc5cn[nH]c5cc4Cl)c23)C1 (racemic) [Example 26, (RS)—N-(6-Chloro-1H-indazol-5-yl)-7-methyl-5,6,7,8-tetrahydro[1]benzothieno[2,3-d]pyrimidin-4-amine] | 327 nM |
| CC[C@@]1(C(=O)N2CCC2)CCc2c(sc3ncnc(Nc4cc5cn[nH]c5cc4OC)c23)C1 [Example 68, (7R) Azetidin-1-yl{(7S)-7-ethyl-4-[(6-methoxy-1H-indazol-5-yl)amino]-5,6,7,8-tetrahydro[1]benzothieno[2,3-d]pyrimidin-7-yl}methanone] | 24.6 nM |
| CC(C)OC(=O)NCC1CCc2c(sc3ncnc(Nc4ccc5[nH]ncc5c4)c23)C1 (racemic) [Example 9, (RS)-Propan-2-yl {[4-(1H-indazol-5-ylamino)-5,6,7,8-tetrahydro[1]benzothieno[2,3-d]pyrimidin-7-yl]methyl}carbamate] | 30.2 nM |
| COCC1(OC)CCc2c(sc3ncnc(Nc4ccc5[nH]ncc5c4)c23)C1 (single isomer, unassigned) [Example 38, (7R) or (7S) N-(1H-Indazol-5-yl)-7-methoxy-7-(methoxymethyl)-5,6,7,8-tetrahydro[1]benzothieno[2,3-d]pyrimidin-4-amine] | 106 nM |
| CC[C@]1(C(=O)N(C)CCOC)CCc2c(sc3ncnc(Nc4cc5cn[nH]c5cc4OC)c23)C1 [Example 65, (7S) 7-Ethyl-N-(2-methoxyethyl)-4-[(6-methoxy-1H-indazol-5-yl)amino]-N-methyl-5,6,7,8-tetrahydro[1]benzothieno[2,3-d]pyrimidine-7-carboxamide] | 3 nM |
| COc1cc2[nH]ncc2cc1Nc1ncnc2sc3c(c12)CCC(CN)C3 (racemic) [Example 19, (RS)-7-(aminomethyl)-N-(6-methoxy-1H-indazol-5-yl)-5,6,7,8-tetrahydro[1]benzothieno[2,3-d]pyrimidin-4-amine] | 6.2 nM |
| CC(C)S(=O)(=O)NCC1CCc2c(sc3ncnc(Nc4ccc5[nH]ncc5c4)c23)C1 (racemic) [Example 11, (RS)—N-{[4-(1H-Indazol-5-ylamino)-5,6,7,8-tetrahydro[1]benzothieno[2,3-d]pyrimidin-7-yl]methyl}propane-2-sulfonamide] | 16.4 nM |
| COCCN(C)C(=O)[C@]1(C)CCc2c(sc3ncnc(Nc4cc5cn[nH]c5cc4OC)c23)C1 [Example 57, (7R) N-(2-Methoxyethyl)-4-[(6-methoxy-1H-indazol-5-yl)amino]-N,7-dimethyl-5,6,7,8-tetrahydro[1]benzothieno[2,3-d]pyrimidine-7-carboxamide] | 21.4 nM |
| COCC1(OC)CCc2c(sc3ncnc(Nc4cc5cn[nH]c5cc4C)c23)C1 (single isomer, unassigned) [Example 41, (7S) or (7R) 7-Methoxy-7-(methoxymethyl)-N-(6-methyl-1H-indazol-5-yl)-5,6,7,8-tetrahydro[1]benzothieno[2,3-d]pyrimidin-4-amine] | 371 nM |
| CC[C@]1(C(=O)N2C[C@@H](C)O[C@@H](C)C2)CCc2c(sc3ncnc(Nc4cc5cn[nH]c5cc4OC)c23)C1 [Example 71, (7S) [(2R,6S)-2,6-Dimethylmorpholin-4-yl]{7-ethyl-4-[(6-methoxy-1H-indazol-5-yl)amino]-5,6,7,8-tetrahydro[1]benzothieno[2,3-d]pyrimidin-7-yl}methanone] | 1.6 nM |
| COc1cc2[nH]ncc2cc1Nc1ncnc2sc3c(c12)CC[C@](C)(C(=O)N1CCOCC1)C3 [Example 52, (7S) {4-[(6-Methoxy-1H-indazol-5-yl)amino]-7-methyl-5,6,7,8-tetrahydro[1]benzothieno[2,3-d]pyrimidin-7-yl}(morpholin-4-yl)methanone] | 2 nM |
